# Results reported in patent publication US5760285A, “Phosphonyldipeptides useful in the treatment of cardiovascular diseases” (priority 1994, dated 1998).
# What was measured:
# NEP = molecular target: T1, NEP (Rattus norvegicus, UniProt P07861); experiment: "In vitro" NEP-inhibitory activity (rat kidney cortex membranes, [3H][Leu5]-enkephaline); type: biochemical; settings: membranes from rat kidney cortex
# T1 construct: Membranes from kidney cortex were prepared according to the following procedure; from tissue; host or cells: rat kidney cortex membranes
# T1 sequence (P07861 1-750): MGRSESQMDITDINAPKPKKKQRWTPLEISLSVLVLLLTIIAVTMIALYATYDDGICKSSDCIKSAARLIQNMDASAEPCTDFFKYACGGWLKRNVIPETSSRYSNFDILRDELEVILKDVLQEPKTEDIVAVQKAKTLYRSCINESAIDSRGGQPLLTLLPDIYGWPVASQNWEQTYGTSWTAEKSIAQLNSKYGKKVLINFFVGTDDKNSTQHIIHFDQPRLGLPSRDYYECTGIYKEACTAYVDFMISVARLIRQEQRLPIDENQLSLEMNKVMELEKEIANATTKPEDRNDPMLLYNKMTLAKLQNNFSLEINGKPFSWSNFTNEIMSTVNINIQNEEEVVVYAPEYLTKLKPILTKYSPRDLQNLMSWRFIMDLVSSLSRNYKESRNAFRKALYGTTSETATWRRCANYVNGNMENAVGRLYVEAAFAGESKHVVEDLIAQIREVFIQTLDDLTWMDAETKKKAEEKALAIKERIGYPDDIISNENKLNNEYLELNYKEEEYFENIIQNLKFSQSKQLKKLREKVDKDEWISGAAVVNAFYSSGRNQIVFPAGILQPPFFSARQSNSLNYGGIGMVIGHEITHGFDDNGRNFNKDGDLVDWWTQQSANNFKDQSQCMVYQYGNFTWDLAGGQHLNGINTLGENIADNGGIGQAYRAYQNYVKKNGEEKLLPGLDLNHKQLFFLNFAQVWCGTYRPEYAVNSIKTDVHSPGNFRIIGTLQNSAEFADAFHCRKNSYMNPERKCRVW
# Experimental: a) NEP-inhibitory activity
# Membranes from kidney cortex were prepared according to the following procedure.
# Cortex was carefully dissected, finely minced and suspended in a homogenization buffer (10 mM sodium phosphate pH 7.4 containing 1 mM MgCl2, 30 mM NaCl, 0.02% NaN3) 1:15 weight/volume.
# The tissue was then homogenized for 30 seconds using an Ultra-Turrax homogenizer.
# The membranes were collected from the buffer/sucrose interface, washed twice with 50 mM TRIS/HCl buffer (pH 7.4) and resuspended into the same buffer for storage.
# The membranes were stored in small aliquots at -80° C. until use.
# The NEP-inhibitory activity was evaluated by using the following method.
# Incubation (20 minutes at 30° C.) was stopped by adding HCl 0.1M (100 μl).
# ACE = molecular target: T2, ACE (Oryctolagus cuniculus, UniProt P12822); experiment: "In vitro" ACE-inhibitory activity (FAPGG substrate); type: biochemical; settings: ACE purified by lung rabbit; tested as lithium salts
# T2 construct: ACE (250 mU/ml purified by lung rabbit, EC 3.4.15.1 SIGMA); purchased SIGMA; host or cells: rabbit lung
# T2 sequence (P12822 34-1310): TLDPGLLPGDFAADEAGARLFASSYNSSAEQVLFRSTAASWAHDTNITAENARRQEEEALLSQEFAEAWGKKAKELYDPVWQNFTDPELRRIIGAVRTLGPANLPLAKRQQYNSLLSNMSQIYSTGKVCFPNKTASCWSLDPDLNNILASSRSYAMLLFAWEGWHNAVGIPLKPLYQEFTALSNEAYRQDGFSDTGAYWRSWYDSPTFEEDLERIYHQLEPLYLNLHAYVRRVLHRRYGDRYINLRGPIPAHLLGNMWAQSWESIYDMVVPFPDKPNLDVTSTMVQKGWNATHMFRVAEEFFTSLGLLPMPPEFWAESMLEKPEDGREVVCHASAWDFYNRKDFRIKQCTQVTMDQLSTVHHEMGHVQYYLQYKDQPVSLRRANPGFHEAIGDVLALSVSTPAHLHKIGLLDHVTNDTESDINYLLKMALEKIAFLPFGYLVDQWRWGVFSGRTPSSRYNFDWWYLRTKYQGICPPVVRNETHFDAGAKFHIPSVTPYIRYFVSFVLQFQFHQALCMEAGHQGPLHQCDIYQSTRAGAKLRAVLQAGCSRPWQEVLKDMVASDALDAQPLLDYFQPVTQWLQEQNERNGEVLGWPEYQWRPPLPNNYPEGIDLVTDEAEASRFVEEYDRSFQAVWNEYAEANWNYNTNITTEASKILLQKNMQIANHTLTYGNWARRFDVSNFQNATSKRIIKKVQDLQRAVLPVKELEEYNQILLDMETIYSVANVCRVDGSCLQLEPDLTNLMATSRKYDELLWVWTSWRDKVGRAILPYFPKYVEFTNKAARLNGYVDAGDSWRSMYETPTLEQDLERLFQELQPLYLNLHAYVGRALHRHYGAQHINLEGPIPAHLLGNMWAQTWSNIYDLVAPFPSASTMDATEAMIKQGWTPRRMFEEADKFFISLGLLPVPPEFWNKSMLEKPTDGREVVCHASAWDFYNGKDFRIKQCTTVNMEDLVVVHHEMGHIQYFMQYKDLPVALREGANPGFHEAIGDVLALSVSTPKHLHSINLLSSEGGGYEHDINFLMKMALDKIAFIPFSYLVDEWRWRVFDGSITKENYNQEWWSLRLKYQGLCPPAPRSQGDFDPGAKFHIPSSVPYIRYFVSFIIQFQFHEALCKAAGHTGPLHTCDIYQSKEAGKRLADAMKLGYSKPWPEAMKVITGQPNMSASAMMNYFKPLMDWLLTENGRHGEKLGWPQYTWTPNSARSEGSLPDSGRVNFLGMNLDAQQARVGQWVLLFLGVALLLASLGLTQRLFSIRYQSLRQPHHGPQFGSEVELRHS
# Experimental: b) ACE-inhibitory activity
# The reaction was started by adding furylacryloylphenylalanylglycylglycine 0.8 mM (FAPGG-SIGMA).
# Contemporaneously, by using a Beckman DU-50 spectrophotometer provided with a program for calculating delta A/minutes and regression coefficients of the enzyme kinetics curves, the absorbance at 340 nm was recorded in continuo for 5 minutes.
structure (smiles),measurement,setting,value
C[C@H](CS)C(=O)N1CCC[C@H]1C(=O)O [Captopril],NEP-inhibitory activity IC50 (nM),NEP; tested as lithium salts,not active
"O=C([O-])[C@H](Cc1ccccc1)NC(=O)[C@H](Cc1ccccc1)NP(=O)(O)CCCCc1ccccc1.O=C([O-])[C@H](Cc1ccccc1)NC(=O)[C@H](Cc1ccccc1)NP(=O)(O)CCCCc1ccccc1.[Li+].[Li+] [Compound R-5, N-[N'-(4-phenyl)butylphosphonyl-L-phenylalanyl]-L-phenylalanine dilithium salt]",IC50,ACE,0.02 µM
same,NEP inhibition,NEP; at a concentration corresponding to 10^-8 M,42%
